{
  "source": "patent US9539298B2",
  "about": "“Lissencephaly therapeutic agent” (OSAKA CITY UNIVERSITY, priority 2010, dated 2017)",
  "system": "Lis1+/− mouse embryonic fibroblasts (MEF)",
  "test": "Change in LIS1 protein amount in cells by SNJ-1945 (western blotting)",
  "assay_type": "cell-based",
  "conditions": "Lis1+/− MEF treated with SNJ-1945, western blotting, FIG. 1",
  "description": "Fibroblasts (MEF; mouse embryonic fibroblasts) were established from five each of LIS1 gene hetero-deficient and wild-type mice (12.5- to 14.5-day-old embryos). The fibroblasts were established as follows. Pregnant mice were killed by cervical fracture, and the mouse embryos were immediately isolated under a germ-free condition. After the heads and visceral tissues were removed with tweezers, the mouse embryos were dissected with scissors. 10 ml of Trypsin-EDTA (Gibco, 25200) was added to each dissected tissue fraction, and the resulting liquid was placed in a 50 ml plastic tube (Nunc, 373687) to be subjected to 30-minute incubation at 37° C. After incubation, 10 ml of fetal bovine serum (Equitech-Bio, Inc., SFBM30-1798) was added, followed by pipetting with a 10 ml pipette (Nunc, 159633), thereby isolating the cells. After the cells were allowed to stand at room temperature for 5 minutes, the supernatant was collected. […]\nUsing the cells, the influence of SNJ-1945 on the LIS protein amount in each cell was analyzed as follows. […] After determination of protein quantity, 10 μg of protein was placed on each lane. After isolation using a 10% acrylic gel (SDS-PAGE), the protein was transferred to an Immobilon membrane (Millipore, IPVH00010), and LIS and DIC (dynein intermediate chain: reflecting the dynein amount) were detected. […] was detected to be used as a protein amount reference. […]",
  "data": [
    {"smiles": "COCCOCCOC(=O)N[C@@H](CC(C)C)C(=O)N[C@@H](Cc1ccccc1)C(=O)C(=O)NC1CC1", "note": "[compound 17, ((1S)-1-((((1S)-1-Benzyl-2,3-dioxo-3-(cyclopropylamino)propyl)amino)carbonyl)-3-methylbutyl)carbamic acid 5-methoxy-3-oxapentyl ester]", "values": [
      {"measurement": "LIS protein amount in cells", "value": "the decrease in the LIS protein amount was recovered"}
    ]}
  ]
}
